Experimental findings from publication PMC7159882, “Polyunsaturated fatty acid analogues differentially affect cardiac NaV, CaV, and KV channels through unique mechanisms” (eLife, 2020) are described below.

Where only a bound is given, the exact number is not on record here.

For the experiment, the target named is T1, Kv7.1/KCNE1 (Homo sapiens, UniProt P51787).
T1 construct: cRNA encoding Kv7.1 (UniProt: P51787), KCNE1 (UniProt: P15382.1); expressed in transfected cells; host or cells: Xenopus laevis oocytes (cRNA injection, Kv7.1:KCNE1 3:1 by weight)
Description: Two-electrode voltage clamp of Kv7.1/KCNE1 expressed in Xenopus oocytes. Type of experiment: cell-based. Also noted: Fitted slope factor of conductance vs voltage relationship: unit of the concentration uncertain. The conditions noted are these: for IKs I/I0: relative current at 0 mV. How it is done: Molecular Biology cRNA encoding Kv7.1 (UniProt: P51787), KCNE1 (UniProt: P15382.1), Nav1.5 (UniProt: Q14524.1), Nav β1 (UniProt: […]), Nav β3 (UniProt: […]), Cav1.2 (GenBank: CAA84346), Cav β3 (Uniprot: P54286), Cav β2 (Uniprot: P54288), and Cav α2δ (Uniprot: P13806) were transcribed using the mMessage mMachine T7 kit (Ambion). 50 ng of cRNA was injected into defolliculated Xenopus laevis oocytes (Ecocyte, Austin, TX): For Kv7.1/KCNE1 channel expression, we injected a 3:1, weight:weight (Kv7.1:KCNE1) cRNA ratio. For Nav1.5 channel expression, we injected a 2:1, weight:weight (Nav1.5:β1) cRNA ratio. For Cav1.2 channel expression, we injected a 2:1:1, weight:weight (Cav1.2:β3:α2δ) cRNA ratio. The exact stoichiometry for channel macromolecular complexes, including α -subunits and auxiliary subunits is not clear for many ion channels. For example, there have been multiple reported stoichiometries for Kv7.1:KCNE1 determined in heterologous expression systems with some groups reporting flexible stoichiometry of 4 Kv7.1: 1–4 KCNE1 and others reporting a fixed stoichiometry of 4 Kv7.1: 2 KCNE1 ([Murray et al., 2016]; [Nakajo et al., 2010]). The ratios of cRNA of α- and auxiliary subunits that we injected in Xenopus laevis oocytes are such that all α-subunits are assumed to be in complex with auxiliary subunits. This allows a more homogenous population of ion channels with auxiliary subunits. One caveat to expressing ion channels as macromolecular complexes is that there are many other auxiliary subunits that could associate with the channel α -subunit that are present in cardiomyocytes and have the potential to alter PUFA-induced effects, but that are not being co-expressed in our experiments. In this work, we are co-expressing some of the auxiliary subunits that have been primarily reported to associate with their respective α -subunits in cardiomyocytes. Following cRNA injection, cells were incubated for 72–96 hr in standard ND96 solution (96 mM NaCl, 2 mM KCl, 1 mM MgCl2, 1.8 mM CaCl2, 5 mM HEPES; pH = 7.5) containing 1 mM pyruvate at 16°C prior to electrophysiological recordings.
Xenopus laevis oocytes were recorded in the two-electrode voltage clamp (TEVC) configuration. Recording pipettes were filled with 3 M KCl. The recording chamber was filled with ND96 (96 mM NaCl, 2 mM KCl, 1 mM MgCl2, 1.8 mM CaCl2, 5 mM HEPES; pH 7.5). For Cav1.2/β3/α2δ channel recordings, Xenopus oocytes were injected with 50 nl of 100 mM EGTA and incubated at 10°C for 30 min prior to electrophysiological recordings in order to sequester cytosolic calcium. In addition, Cav1.2/β3/α2δ channel recordings were done in Ca^2+-free solutions, using Ba^2+ as the charge carrier, to prevent calcium-dependent inactivation of Cav1.2/β3/α2δ channels. Calcium-dependent inactivation was not studied in this work, due to the presence of large calcium-activated chloride currents present in Xenopus laevis oocytes. PUFAs were obtained from Cayman Chemical (Ann Arbor, MI.) or synthesized in house (Linköping, Sweden) through methods previously described ([Bohannon et al., 2020]) and kept at −20 °C as 100 mM stock solutions in ethanol. […] PUFAs were perfused into the recording chamber using the Rainin Dynamax Peristaltic Pump (Model RP-1) (Rainin Instrument Co., Oakland, CA. USA).
Electrophysiological recordings were obtained using Clampex 10.3 software (Axon, pClamp, Molecular Devices). To measure Kv7.1/KCNE1 currents we apply PUFAs as the membrane potential is stepped every 30 s from −80 mV to 0 mV for 5 s before stepping to −40 mV and back to −80 mV to ensure that the PUFA effects on the current at 0 mV reached steady state. A voltage-step protocol was used to measure the current vs. voltage (I-V) relationship before PUFA application and after the PUFA effects had reached steady state for each concentration of PUFA. Cells were held at −80 mV followed by a hyperpolarizing prepulse to −140 mV. […]

As to `CCCCC/C=C\C/C=C\C/C=C\C/C=C\CCCC(=O)NCCS(=O)(=O)O` [N-AT, N-arachidonoyl taurine], the “Fitted slope factor of conductance vs voltage relationship” value (0.2 μM) was 16.9 ± 0.65 mV; the “Fitted slope factor of conductance vs voltage relationship” value (0.7 μM) worked out at 17.2 ± 0.62 mV; the “Fitted slope factor of conductance vs voltage relationship” value (2 μM) turned out to be 17.4 ± 0.60 mV; the “Fitted slope factor of conductance vs voltage relationship” value (7 μM) is on record as 18.2 ± 0.59 mV; the “Fitted slope factor of conductance vs voltage relationship” value (20 μM) is on record as 18.7 ± 0.73 mV. In addition, the Gmax/Gmax0 is 1.0 ± 0.1 (0.2 μM); 0.9 ± 0.02 (0.7 μM); 0.9 ± 0.02 (2 μM); 0.9 ± 0.03 (7 μM); 0.9 ± 0.02 (20 μM). The “ΔV0.5 (voltage dependence of activation)” value was 0.7 ± 0.8 mV (0.2 μM); 0.9 ± 1.1 mV (0.7 μM); 0.6 ± 1.1 mV (2 μM); “–1.8 ± 2.6 mV” (7 μM); -8.5 ± 4.9 mV (20 μM). Also, the “IKs I/I0” value by setting is: (0.2 μM) 1.0 ± 0.02; (0.7 μM) 1.0 ± 0.03; (2 μM) 1.0 ± 0.04; (20 μM) 1.3 ± 0.2. The “concentrations at which the effects on IKs appear” value (I/I0 at 0 mV) is over 20 µM.

Turning to `CC/C=C\C/C=C\C/C=C\C/C=C\C/C=C\C/C=C\CCC(=O)NCC(=O)O` [DHA-glycine, docosahexaenoyl glycine], the “Fitted slope factor of conductance vs voltage relationship” value by setting is: (0.2 μM) 16.5 ± 0.49 mV; (0.7 μM) 16.6 ± 0.45 mV; (2 μM) 16.6 ± 0.52 mV; (7 μM) 17.0 ± 0.56 mV; (20 μM) 17.9 ± 0.68 mV. Moreover, the Gmax/Gmax0 reads like this: (0.2 μM) 1.3 ± 0.1; (0.7 μM) 1.5 ± 0.1; (2 μM) 1.7 ± 0.2; (7 μM) 1.9 ± 0.2; (20 μM) 2.0 ± 0.2. Further, the “ΔV0.5 (voltage dependence of activation)” value (0.2 μM) was -2.0 ± 0.8 mV; the “ΔV0.5 (voltage dependence of activation)” value (0.7 μM) is on record as -3.0 ± 1.0 mV; the “ΔV0.5 (voltage dependence of activation)” value (2 μM) is on record as -5.8 ± 0.9 mV; the “ΔV0.5 (voltage dependence of activation)” value (7 μM) is −10.5 ± 1.0 mV; the “ΔV0.5 (voltage dependence of activation)” value (20 μM) is given as -16.5 ± 1.3 mV. In addition, the “IKs I/I0” value by setting is: (0.2 μM) 1.3 ± 0.1; (0.7 μM) 1.7 ± 0.2; (2 μM) 2.4 ± 0.5; (20 μM) 5.0 ± 1.3.

As to `CCCCC/C=C\C/C=C\CCCCCCCC(=O)NCCS(=O)(=O)O` [Lin-taurine, Linoleoyl taurine], the “Fitted slope factor of conductance vs voltage relationship” value amounted to 17.7 ± 0.76 mV (0.2 μM); 17.7 ± 0.77 mV (0.7 μM); 18.6 ± 1.0 mV (2 μM); 18.1 ± 1.0 mV (7 μM); 12.2 ± 1.8 mV (20 μM). This compound also returned a Gmax/Gmax0 (0.2 μM) of 1.0 ± 0.03; a Gmax/Gmax0 (0.7 μM) of 1.1 ± 0.02; a Gmax/Gmax0 (2 μM) of 1.7 ± 0.4; a Gmax/Gmax0 (7 μM) of 1.9 ± 0.6; a Gmax/Gmax0 (20 μM) of 2.0 ± 0.6. The “ΔV0.5 (voltage dependence of activation)” value is listed as 1.3 ± 0.7 mV (0.2 μM); -0.3 ± 1.4 mV (0.7 μM); -12.3 ± 3.1 mV (2 μM); −39.9 ± 3.6 mV (7 μM); -39.9 ± 3.6 mV (7 μM, listed as lin-taurine); -73.1 ± 2.6 mV (20 μM). Besides, the “IKs I/I0” value runs as follows: (0.2 μM) 1.0 ± 0.1; (0.7 μM) 1.2 ± 0.2; (2 μM) 3.2 ± 0.9; (7 μM) 7.7 ± 2.9 (p=0.14); (7 μM, listed as lin-taurine) 7.7 ± 2.9; (20 μM) 10.4 ± 4.0.

With `CCCCC/C=C\C/C=C\CC/C=C\CCCC(=O)NCCS(=O)(=O)O` [Pin-taurine], the “Fitted slope factor of conductance vs voltage relationship” value is, setting by setting: (0.2 μM) 17.9 ± 0.82 mV; (0.7 μM) 17.7 ± 0.82 mV; (2 μM) 18.3 ± 0.96 mV; (7 μM) 18.8 ± 1.0 mV; (20 μM) 16.8 ± 0.73 mV. Moreover, the Gmax/Gmax0 is on record as 1.2 ± 0.1 (0.2 μM); 1.3 ± 0.2 (0.7 μM); 2.0 ± 0.4 (2 μM); 2.2 ± 0.4 (7 μM, listed as pin-taurine); 1.9 ± 0.3 (20 μM). In addition, the “ΔV0.5 (voltage dependence of activation)” value runs as follows: (0.2 μM) 2.6 ± 2.4 mV; (0.7 μM) 2.3 ± 3.5 mV; (2 μM) -4.9 ± 3.4 mV; (7 μM) −23.8 ± 2.7 mV; (7 μM, listed as pin-taurine) -23.8 ± 2.7 mV; (20 μM) -51.6 ± 3.5 mV. Also, the “IKs I/I0” value is listed as 1.1 ± 0.1 (0.2 μM); 1.4 ± 0.4 (0.7 μM); 3.0 ± 0.4 (2 μM); 6.8 ± 1.0 (p=0.01) (7 μM); 6.8 ± 1.0 (7 μM, listed as pin-taurine); 9.0 ± 1.4 (20 μM).

On to `CCCCC/C=C\C/C=C\CCCCCCCC(=O)NCC(=O)O` [Lin-glycine], for which the “Fitted slope factor of conductance vs voltage relationship” value was 18.2 ± 0.89 mV (0.2 μM); 19.0 ± 1.0 mV (0.7 μM); 19.2 ± 1.2 mV (2 μM); 20.6 ± 1.5 mV (7 μM); 22.1 ± 1.7 mV (20 μM). Besides, the Gmax/Gmax0 worked out at 1.2 ± 0.1 (0.2 μM); 1.3 ± 0.1 (0.7 μM); 1.8 ± 0.2 (2 μM); 2.3 ± 0.2 (7 μM); 2.4 ± 0.2 (20 μM). Further, the “ΔV0.5 (voltage dependence of activation)” value runs as follows: (0.2 μM) -2.7 ± 1.5 mV; (0.7 μM) -3.3 ± 3.0 mV; (2 μM) -10.0 ± 2.8 mV; (7 μM) −23.8 ± 1.6 mV; (7 μM, listed as lin-glycine) -23.8 ± 1.6 mV; (20 μM) -26.4 ± 4.4 mV. For the same compound, the “IKs I/I0” value is listed as 1.2± 0.1 (0.2 μM); 1.4 ± 0.1 (0.7 μM); 2.5 ± 0.4 (2 μM); 5.1 ± 0.4 (p=0.002) (7 μM); 5.1 ± 0.4 (7 μM, listed as lin-glycine); 5.3 ± 0.5 (20 μM).
